This assay concerns the target T1, HsDLH (Homo sapiens, UniProt Q96DG6).
T1 construct: gene CMBL; N-terminal His6-Twin-Strep-SUMO tag kept, E. coli BL21(DE3), Ni-NTA
T1 sequence (Q96DG6 1-245): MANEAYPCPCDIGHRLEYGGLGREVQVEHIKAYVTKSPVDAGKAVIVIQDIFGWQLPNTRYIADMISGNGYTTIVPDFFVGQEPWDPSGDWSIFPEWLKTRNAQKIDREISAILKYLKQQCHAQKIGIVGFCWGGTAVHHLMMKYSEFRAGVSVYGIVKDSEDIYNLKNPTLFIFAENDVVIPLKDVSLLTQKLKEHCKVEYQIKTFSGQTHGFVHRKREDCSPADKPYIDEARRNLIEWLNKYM
Type of assay: biochemical.

Consider `CCOP(=O)(OCC)Oc1ccc2c(c1)Oc1cc(OP(=O)(OCC)OCC)ccc1C21OC(=O)c2ccccc21` [FDDEP], for which the KM result is “displays very weak activity towards the fluorogenic phosphotriester FDDEP”.

(Values after publication doi:10.1101/2025.10.30.685675v2 (biorxiv, 2026).)
